Columns and labels:
[1] = tested on: pulmonary fibrosis induced by bleomycin; experiment: Inhibitory effect on pulmonary fibrosis induced by bleomycin in mice (Micro-CT, H&E and Masson's Trichrome staining, survival); type: in vivo; settings: bleomycin sulfate 1.5 U/kg, male C57BL/6 mice; each drug 60 mg/kg orally once daily for two weeks starting 14 days after bleomycin; Micro-CT 4 weeks after bleomycin; compared to untreated group
Procedure: Each drug was administered starting 14 days after the administration of bleomycin. The control drugs, nintedanib and pexidartinib (IM-1), were both administered at a dose of 60 mg/kg, and the co-administration group was orally administered nintedanib (60 mg/kg) with IM-1 (60 mg/kg) once daily for two weeks (a total of 13 administrations). Additionally, to analyze the degree of inflammatory response and the degree of fibrosis, H&E staining and Masson's Trichrome staining were performed. In addition, the mouse survival rate was compared in FIG. 3.

[2] = tested on: radiation-induced pulmonary fibrosis; experiment: Inhibitory effect on radiation-induced pulmonary fibrosis in mice (Micro-CT, H&E and Masson's Trichrome staining); type: in vivo; settings: SBRT 90 Gy, 4 mm collimator, male C57BL/6 mice; each drug 60 mg/kg orally daily, starting one hour before irradiation; Micro-CT two weeks after radiation exposure; compared to untreated group
Description: Seven-week-old male C57BL/6 mice were divided into groups treated with IM-1, nintedanib, and the combination of the two drugs (IM-1 + nintedanib). One hour before stereotactic body radiation therapy (SBRT; 90 Gy, 4 mm collimator), the drugs were orally administered to the mice. The degree of pulmonary fibrosis and the inhibitory effect on radiation-induced lung injury were observed two weeks after radiation exposure. The IM-1 and nintedanib groups were each administered the respective drug daily at a dose of 60 mg/kg, and the combination group was administered both drugs daily at 60 mg/kg each. Additionally, to analyze the degree of inflammatory response and the degree of fibrosis, H&E staining and Masson's Trichrome staining were performed.

COC(=O)c1ccc2c(c1)NC(=O)/C2=C(\Nc1ccc(N(C)C(=O)CN2CCN(C)CC2)cc1)c1ccccc1 [nintedanib, methyl (3Z)-3-{[(4-{methyl[(4-methylpiperazin-1-yl)acetyl]amino}phenyl)amino](phenyl)methylidene}-2-oxo-2,3-dihydro-1H-indole-6-carboxylate]
degree of fibrosis [1]: a reduction in the degree of fibrosis | degree of fibrosis [2]: a reduction in the degree of fibrosis

FC(F)(F)c1ccc(CNc2ccc(Cc3c[nH]c4ncc(Cl)cc34)cn2)cn1 [IM-1, 5-((5-chloro-1H-pyrrolo[2,3-b]pyridin-3-yl)methyl)-N-((6-(trifluoromethyl)pyridin-3-yl)methyl)pyridin-2-amine]
degree of fibrosis [1]: a reduction in the degree of fibrosis | degree of fibrosis [2]: a reduction in the degree of fibrosis

From patent publication EP4706657A1, “COMBINATION THERAPY OF PEXIDARTINIB AND NINTEDANIB FOR PREVENTION OR TREATMENT OF PULMONARY FIBROSIS” (Korea Institute of Radiological & Medical Sciences, priority 2023, dated 2024)
